Reference: PMC10325900, “A conserved motif in the disordered linker of human MLH1 is vital for DNA mismatch repair and its function is diminished by a cancer family mutation” (Nucleic Acids Research, 2023)
Where a chain is given by its changes, count along the chain named.

Columns and labels:
MLH1-ΔConMot-PMS2 = biological target: T1, MLH1-ΔConMot-PMS2 (Homo sapiens, UniProt P40692+P54278, DEL377-396); test: DNA mismatch repair (MMR) complementation assay with peptide, MLH1-ΔConMot variant; assay type: biochemical
T1 construct: The pcDNA3 expression vector containing the entire open reading frame of human MLH1; expressed in transfected cells; host or cells: HEK293T (MLH1-deficient), transiently co-transfected
T1 sequence (P40692 with tags, fused parts or gaps DEL377-396): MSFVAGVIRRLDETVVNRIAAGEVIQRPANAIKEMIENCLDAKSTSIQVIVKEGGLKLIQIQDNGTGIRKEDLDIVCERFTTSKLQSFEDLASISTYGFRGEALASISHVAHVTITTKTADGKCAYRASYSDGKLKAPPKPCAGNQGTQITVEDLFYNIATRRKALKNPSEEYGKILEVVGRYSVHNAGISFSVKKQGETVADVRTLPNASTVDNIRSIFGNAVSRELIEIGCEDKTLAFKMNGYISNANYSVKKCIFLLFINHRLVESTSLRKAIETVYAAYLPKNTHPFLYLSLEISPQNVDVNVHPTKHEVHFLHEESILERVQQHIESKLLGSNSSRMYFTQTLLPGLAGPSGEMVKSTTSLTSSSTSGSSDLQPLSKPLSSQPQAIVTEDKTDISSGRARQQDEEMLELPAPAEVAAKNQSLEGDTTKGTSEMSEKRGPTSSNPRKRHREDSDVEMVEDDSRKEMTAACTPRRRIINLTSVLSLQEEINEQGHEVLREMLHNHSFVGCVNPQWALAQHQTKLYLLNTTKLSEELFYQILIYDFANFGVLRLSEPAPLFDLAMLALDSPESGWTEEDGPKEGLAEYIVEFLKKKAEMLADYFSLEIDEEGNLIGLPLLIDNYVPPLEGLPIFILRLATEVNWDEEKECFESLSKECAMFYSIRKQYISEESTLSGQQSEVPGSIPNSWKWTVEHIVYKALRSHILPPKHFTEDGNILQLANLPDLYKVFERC
T1 sequence (P54278 1-862 partner): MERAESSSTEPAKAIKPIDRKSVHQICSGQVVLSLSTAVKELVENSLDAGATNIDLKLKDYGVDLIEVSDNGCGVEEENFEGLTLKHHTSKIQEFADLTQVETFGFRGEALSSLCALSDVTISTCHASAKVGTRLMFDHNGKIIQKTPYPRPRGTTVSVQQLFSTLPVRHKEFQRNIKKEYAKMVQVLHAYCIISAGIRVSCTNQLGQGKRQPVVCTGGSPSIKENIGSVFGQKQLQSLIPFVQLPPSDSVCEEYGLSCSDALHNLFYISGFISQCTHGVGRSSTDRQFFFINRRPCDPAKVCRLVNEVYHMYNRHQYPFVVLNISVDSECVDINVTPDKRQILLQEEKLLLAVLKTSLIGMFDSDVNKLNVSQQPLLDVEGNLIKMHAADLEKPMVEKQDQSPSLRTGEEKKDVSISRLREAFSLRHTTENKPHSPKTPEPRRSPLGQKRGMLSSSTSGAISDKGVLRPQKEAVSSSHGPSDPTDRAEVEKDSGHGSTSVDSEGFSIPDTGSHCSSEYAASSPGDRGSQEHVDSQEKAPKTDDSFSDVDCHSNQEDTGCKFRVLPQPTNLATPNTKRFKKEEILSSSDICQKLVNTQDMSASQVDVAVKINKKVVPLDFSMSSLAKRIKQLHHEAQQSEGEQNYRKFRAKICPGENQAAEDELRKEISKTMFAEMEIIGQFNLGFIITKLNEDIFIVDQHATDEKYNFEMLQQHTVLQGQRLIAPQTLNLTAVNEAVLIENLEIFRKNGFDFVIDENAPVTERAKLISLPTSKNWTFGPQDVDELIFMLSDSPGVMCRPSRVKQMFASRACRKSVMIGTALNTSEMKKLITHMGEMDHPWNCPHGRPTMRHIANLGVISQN
Procedure: (§1) Mismatch repair activity was assessed as described in detail before ([79],[81]) (Supplementary Figure S3). […] Mismatched DNA plasmid substrate (Supplementary Figure S3) prepared according to previously published procedures ([81–83]) was added, and reactions in a final volume of 25 μl were incubated at 37°C for 15 min. Repair efficiency was scored by purifying the mismatched DNA plasmid from the reaction and assessing the fraction of homoduplex sequence by restriction digestion of the mismatched site using EcoRV. The substrate was additionally linearized with AseI.
For complementation assays with peptide, the indicated peptide(s) were used at stock concentrations of 50 or 500 μM in HEPES–KOH 20 mM pH 7.6 and supplemented to the MMR reactions.
Figure 4. Reaction of DNA mismatch repair to addition of ConMot peptide. (A) Nuclear extract of MLH1-proficient HEK293 cells was used for performing the DNA mismatch repair reaction. Four reactions were undertaken, with two reactions supplemented with either 7.5 μM or 75 μM ConMot-32 peptide. A negative control reaction was performed by omitting the 37°C repair incubation. (B) MMR reactions were performed with nuclear extract of MLH1-deficient HEK293T cells supplemented with extract of cells transfected either with wildtype MLH1-PMS2 (positive control) or with MLH1-ΔConMot-PMS2. To these MMR reactions, different peptides were added at a concentration of 75 μM: A ConMot-32 peptide (A), a Scramble-32 peptide (B) in which the conserved ConMot sequence is scrambled, and a short ConMot-20 peptide (C) that only contains the twenty highly conserved ConMot residues. The peptide sequences are given below the gel image. (C) The concentration-dependence of the MMR-activating effect of the ConMot-32 peptide observed in (B) was measured over a concentration range from 1–75 μM. (D) Theoretical binding curves of a ligand (peptide) to a protein were calculated for dissociation constants (KD) of 1, 5 and 10 μM for a protein concentration as present for MLH1-PMS2 in the MMR assay reactions (see also Supplementary Figure S3). Into this diagram, the average MMR activities (and standard deviations) measured in >3 of the experiment exemplarily shown in C were introduced as bars at ConMot-32 peptide concentrations of 1, 2.5, 7.5, 18 and 75 μM.
Second, we used extract of the repair-deficient cell line HEK293T supplemented with either wildtype MutLα (MLH1-PMS2) or the ΔConMot deletion variant, corresponding to experiment shown in Figure 2B. In this experiment, we again added ConMot peptide.
We investigated the effect of the ConMot peptide more closely by titrating the required peptide concentrations for activation. We determined that the mismatch repair reactions performed in this study contained approximately 280 fmol MLH1 (Supplementary Figure S4A and B), which is in good agreement with previous quantifications of MLH1-PMS2 in cells and extracts ([96]). […] Dissociation constants (KD) for peptides to proteins are typically in the range of 1–10 μM ([97]). We compared the measured concentration-dependent MMR activities with theoretical binding curves of (peptide) ligands to (protein) substrates for KD values of 1, 5 and 10 μM (Supplementary Figure S4C) at the determined MLH1 concentration. […] It is therefore plausible that a binding reaction of the ConMot peptide (to a protein) underlies the restauration of MMR activity. […]
Deletion C on M ot (∆Co nMot) c.1129_1188del CTGCAGCCTCTGAGCAAA […]
Del et i on comp are (∆Compare) c.1221_1280del […] ACTGGACAGGGGTTTGCT
Scramble c.1147_1160delinsGAC ggtacgtTCCCGGGAACAGAAGCT atagtgtcCTGGTGGGCATAGACCT
p.(M383_D387delinsDTMVR) ACTATGGTAC G T TATC
ConMot hy bri d gcataTCTGCAGCCTCTGAGCAA acagg[…]
Supplementary Table 1: Analyzed variant inf ormation.
Variant descriptions confer to HGVS format and refer to the MLH1 reference cDNA (NM_000249.4) […]

[1] = biological target: MLH1-ΔConMot-PMS2 (MutLα heterodimer with the ConMot deletion variant of MLH1) (human) (UniProt P40692)
[2] = tested on: G-T mismatch in a test plasmid; test: MMR activity of MLH1 variants (MLH1-PMS2 expressed in HEK293T cells); assay type: biochemical, human; details: variant MLH1 + PMS2 transfected in HEK293T, relative to wildtype; 37°C, 15 min; >3 independent experiments
Procedure: Sequence variants of the MLH1 expression vector were generated using the Q5 site directed mutagenesis system (New England Biolabs, Ipswich, MA, USA) with the appropriate primers (Supplementary Table S1).
as §1
Figure 2. Expression and DNA mismatch repair activity of human and artificial ConMot variants. […] As a negative control, one sample was only transfected with an EGFP. After 48 h, native whole cell protein extracts were prepared. Expression was assessed by SDS-PAGE and western blotting. (A) Representative western blot of MLH1 wildtype and variant expressions. Average expression levels of MLH1 of > 5 independent transfections were determined and are given in the bar diagram below. (B) The extracts of the transfections were used to assess the DNA mismatch repair activities of the variant MLH1 proteins in comparison with wildtype (WT) MLH1-PMS2 as detailed in Materials and Methods and as shown in Supplementary Figure S3. The EGFP-transfected extract sample served as negative control. Representative agarose gels are shown in the top panel.
Figure 3. Analysis of the relevance of ConMot core and surrounding sequences. MLH1 proteins containing either the wildtype human ConMot motif sequence or variants were directly compared concerning expression and MMR activity. (A) Comparison of the ConMot variants used: the core-scramble variant sequence, the full-scramble variant sequence and an animal-plant hybrid that contains the ConMot consensus sequence of plants as it exists, for example, in walnut and mungo bean (Vigna radiata and Juglans regia). (B) Comparison of conservation in the animal versus plant ConMot in WebLogo representation. Specific differences in conservation within the sequences flanking the core MVRTD sequence are marked by red arrows above the animal sequence. (C) Western blot of the expression of the different MLH1-ConMot wildtype (WT) and the variants shown in A after transfection in HEK293T cells; negative control: transfection of EGFP. (D) MMR activities were assessed in direct comparison to negative control and wildtype human MLH1 as in Figure 2B. Average activities and standard deviations were calculated from >3 independent experiments.
Figure 6. The MMR defect of p.Tyr750Arg is partly compensated by p.Arg385Tyr. […] (B) The side chain of the highly conserved Arg385 is predicted to be in proximity to the side chain of the highly conserved Tyr750 residue. (C) MLH1-PMS2-deficient HEK293T cells were co-transfected with the indicated single- and double variants of MLH1 and PMS2. Protein extracts were prepared, separated by SDS-PAGE, blotted and probed for MLH1 protein expression. (D) MMR assays were performed to test DNA mismatch repair activity as detailed in Materials and Methods. One representative agarose gel is shown, and average repair values in comparison to wildtype and standard deviations of >3 independent experiments are shown in a bar diagram. A two-sided t-test was performed for testing significance of the difference in repair activity of p.Tyr750Arg in comparison to the double variant p.Arg385Tyr + Tyr750Arg.
Mismatched DNA plasmid substrate and principle of MMR assay.
The MMR assay is performed using as substrate a modified 2 kbp derivative of the pUC vector (pUC
CPDC Bb v) originally generated by Wang and Hays and further modified by Plotz et al. and Gonzáles-
Acosta et al . […]

KVYAHQMVRTDSREQKLDAF [ConMot-20]
effect of 20mer-ConMot on MMR restauration by the 32mer-ConMot (MLH1-ΔConMot-PMS2; Figure 4B, peptides at 75 μM, combined peptides, 37°C, 15 min): did not affect MMR restauration | effect of peptide on MMR (summary in Supplementary Table 2) (MLH1-ΔConMot-PMS2; molar ratio 0-860-2300-8600 to hMLH1-PMS2, Tris-HCl pH 7.5, 5 mM Mg2+, 1.5 mM ATP): inactive

SGSSDMVQFEKLKDRRSQDATYVAHLQPLSKP [Scramble-32]
restoration of DNA mismatch repair activity of the ΔConMot variant (MLH1-ΔConMot-PMS2; peptide 75 μM (Figure 4B), HEK293T nuclear extract 50 μg + 5 μg transfected extract, 25 μl, 37°C, 15 min, EcoRV/AseI digestion, agarose gel): did not restore MMR activity

SGSSDKVYAHQMVRTDSREQKLDAFLQPLSK [ConMot-32 peptide (32-mer peptide containing the sequence of the MLH1-ConMot)]
KD read by comparing the concentration-dependent MMR restoration with theoretical binding curves of a peptide ligand to a protein at the determined MLH1 concentration [1]: 7.5 µM

B1: p.Tyr379Cys: human MLH1 missense variant, c.1136A>G (protein, UniProt P40692 2-756, looked up, variant Y379C)
DNA mismatch repair protein …: SFVAGVIRRLDETVVNRIAAGEVIQRPANAIKEMIENCLDAKSTSIQVIVKEGGLKLIQIQDNGTGIRKEDLDIVCERFTTSKLQSFEDLASISTYGFRGEALASISHVAHVTITTKTADGKCAYRASYSDGKLKAPPKPCAGNQGTQITVEDLFYNIATRRKALKNPSEEYGKILEVVGRYSVHNAGISFSVKKQGETVADVRTLPNASTVDNIRSIFGNAVSRELIEIGCEDKTLAFKMNGYISNANYSVKKCIFLLFINHRLVESTSLRKAIETVYAAYLPKNTHPFLYLSLEISPQNVDVNVHPTKHEVHFLHEESILERVQQHIESKLLGSNSSRMYFTQTLLPGLAGPSGEMVKSTTSLTSSSTSGSSDKVCAHQMVRTDSREQKLDAFLQPLSKPLSSQPQAIVTEDKTDISSGRARQQDEEMLELPAPAEVAAKNQSLEGDTTKGTSEMSEKRGPTSSNPRKRHREDSDVEMVEDDSRKEMTAACTPRRRIINLTSVLSLQEEINEQGHEVLREMLHNHSFVGCVNPQWALAQHQTKLYLLNTTKLSEELFYQILIYDFANFGVLRLSEPAPLFDLAMLALDSPESGWTEEDGPKEGLAEYIVEFLKKKAEMLADYFSLEIDEEGNLIGLPLLIDNYVPPLEGLPIFILRLATEVNWDEEKECFESLSKECAMFYSIRKQYISEESTLSGQQSEVPGSIPNSWKWTVEHIVYKALRSHILPPKHFTEDGNILQLANLPDLYKVFERC
DNA mismatch repair activity of MLH1 variant (in words) [2]: did not find a catalytic defect

B2: p.Val384Asp: human MLH1 missense variant, c.1151T>A (protein, UniProt P40692 2-756, looked up, variant V384D)
DNA mismatch repair protein …: B1 DNA mismatch repair protein … with C378Y, V383D
DNA mismatch repair activity of MLH1 variant (in words) [2]: no detectable impairment of MMR
